{"source": "patent US20220226447A1", "about": "“ANTI-ABETA VACCINE THERAPY” (AC Immune SA, priority 2019, published 2022)", "origin": "cited, not measured here", "conditions": "human, in vivo", "data": [{"substance": "AN1792: full-length Aβ1-42 vaccine", "values": [{"measurement": "antibody response", "value": "induced an antibody response"}, {"measurement": "rate of cognitive decline versus placebo-treated patients", "value": "slower rate of cognitive decline"}, {"measurement": "treated patients who developed meningoencephalitis", "value": 6, "unit": "%"}]}]}
